Patent US12508273B2, “Beta-1,3′-galactosyllactose for the treatment of gut barrier function diseases” (N.V. Nutricia, priority 2019, dated 2025)

Columns and labels:
Assay type in all cases: cell-based, human
Caco-2 cells = assay: Viability of Caco-2 cells exposed to DON; conditions: DON 4.2 M in complete cell medium, apical and basolateral
Method: (§1) Caco-2 cell monolayers were thus grown in a transwell system, which is a model for intestinal barrier function. The monolayers were pretreated for 24 h with different GLs, including beta3′-GL, alpha3′-GL, beta4′-GL and beta6′-GL in a concentration of 0.75 wt % of the GL, before being exposed to the fungal toxin deoxynivalenol (DON), which is a trigger and model compound to impair intestinal barrier. DON was diluted to a final concentration of […] in complete cell medium and added to the apical side as well as to the basolateral side of the transwell inserts. […] Incubation with DON was 24 h.

[1] = test system: IL-8 (CXCL8) release by Caco-2 cells; assay: DON-induced IL-8 (CXCL8) release by Caco-2 cells, ELISA; conditions: DON alone 4.2 M, 24 h
Method: as §1
(§2) Measurements of the transepithelial electrical resistance (TEER) and lucifer yellow (LY) permeability were conducted to investigate barrier integrity. […] Results are expressed as a percentage of the initial value. For paracellular tracer flux assay the membrane impermeable lucifer yellow (LY) (Sigma, St Luis, MO, USA) was added in a concentration of 16 μg/ml to the apical compartment in the transwell plate for 4 h, and the paracellular flux was determined by measuring the fluorescence intensity in the basolateral compartment with a spectrophotofluorimeter (FLUOstar Optima, BMG Labtech, Offenburg, Germany) set at excitation and emission wavelengths of 410 and 520 nm, respectively. […]

Caco-2 cell monolayer [2] = assay: Transepithelial electrical resistance (TEER) of Caco-2 monolayers after DON-induced impairment
Method: (§3) Caco-2 cells were used according to established methods. In brief: cells were cultured in Dulbecco's modified Eagle medium (DMEM) and seeded at a density of 0.3×10^5 cells into 0.3 cm^2 high pore density (0.4 μm) inserts with a polyethylene terephthalate membrane (BD Biosciences, Franklin Lakes, NJ, USA) placed in a 24-well plate. The Caco-2 cells were maintained in a humidified atmosphere of 95 air and 5% CO2 at 37° C. After 17-19 days of culturing, a confluent monolayer was obtained with a mean Transepithelial electrical resistance (TEER) exceeding 400 Ωcm^2 measured by a Millicell-Electrical Resistance System voltohm-meter (Millipore, Temecula, CA, USA).
as §1
Measurements of the transepithelial electrical resistance (TEER) and lucifer yellow (LY) permeability were conducted to investigate barrier integrity. For TEER measurements a Millicel-ERS voltohmmeter connected to a pair of chopsticks electrodes was used to measure the TEER values. Results are expressed as a percentage of the initial value. For paracellular tracer flux assay the membrane impermeable lucifer yellow (LY) (Sigma, St Luis, MO, USA) was added in a concentration of 16 μg/ml to the apical compartment in the transwell plate for 4 h, and the paracellular flux was determined by measuring the fluorescence intensity in the basolateral compartment with a spectrophotofluorimeter (FLUOstar Optima, BMG Labtech, Offenburg, Germany) set at excitation and emission wavelengths of 410 and 520 nm, respectively. Release of interleukin-8 (IL-8 or CXCL8), which is a typical marker for inflammation, was quantified in the medium of the apical side and the basolateral side of the Caco-2 transwell inserts in response to the treatments. CXCL8 concentrations were measured by using the human IL-8 ELISA assay (BD Biosciences, Pharmingem, San Diego, CA, USA) according to manufacturer's instructions. For more details on materials and methods see Akbari et al, 2016, Eur J Nutr. 56(5):1919-1930.
Barrier function experiments were performed in a similar way as in example 2 using the following concentrations of Vivinal GOS (VGOS): 0 (Control), 0.25 wt % (VGOS 0.25), 0.5 wt % (VGOS 0.5), 0.75 wt % (VGOS 0.75), 1 wt % (VGOS 1), 1.5 wt % (VGOS 1.5) and 2 wt % (VGOS 2). For TOS concentrations of 0.25 wt % (TOS 0.25) and 0.5 wt % (TOS 0.5) were tested.

Caco-2 cell monolayer [3] = assay: Lucifer yellow (LY) paracellular flux across Caco-2 monolayers after DON-induced impairment; conditions: GL 0.75 wt %, 24 h pretreatment, then DON 4.2 M 24 h; FIGS. 1C, 1D
Method: as §3, with “USA). […]” for “USA).”
as §2

[4] = GL 0.75 wt %, 24 h pretreatment, then DON 4.2 M 24 h

CC1=C[C@H]2O[C@@H]3[C@H](O)C[C@](C)([C@@]2(CO)[C@H](O)C1=O)[C@]31CO1 [DON, deoxynivalenol]
viability of the Caco-2 cells (Caco-2 cells): did not affect the viability
CXCL8 (IL-8) release [1]: increased CXCL8 (IL-8) release

OC[C@H]1O[C@H](O[C@H]2[C@@H](O)[C@@H](CO)O[C@@H](O[C@H]3[C@H](O)[C@@H](O)C(O)O[C@@H]3CO)[C@@H]2O)[C@H](O)[C@@H](O)[C@H]1O (stereo partly drawn) [alpha3′-GL, Gal (alpha 1-3)-Gal (beta 1-4)-Glc]
effect on DON-induced loss of epithelial barrier integrity (TEER and LY flux) (Caco-2 cell monolayer [2]; [4]): did not prevent the DON-induced disrupted intestinal barrier

OC[C@H]1O[C@@H](O[C@@H]2[C@H](O)[C@@H](O)[C@H](O[C@H]3[C@H](O)[C@@H](O)C(O)O[C@@H]3CO)O[C@@H]2CO)[C@H](O)[C@@H](O)[C@H]1O (stereo partly drawn) [beta4′-GL, Gal (beta 1-4)-Gal (beta 1-4)-Glc]
effect on DON-induced loss of epithelial barrier integrity (TEER and LY flux) (Caco-2 cell monolayer [2]; [4]): did not show a significant effect

OC[C@H]1O[C@@H](OC[C@H]2O[C@@H](O[C@H]3[C@H](O)[C@@H](O)C(O)O[C@@H]3CO)[C@H](O)[C@@H](O)[C@H]2O)[C@H](O)[C@@H](O)[C@H]1O (stereo partly drawn) [beta6′-GL, Gal (beta 1-6)-Gal (beta 1-4)-Glc]
effect on DON-induced loss of epithelial barrier integrity (TEER and LY flux) (Caco-2 cell monolayer [2]; [4]): did not show a significant effect

Gal (beta 1-3)-Gal (beta 1-4)-Glc [beta3′-GL]
LY flux after DON challenge (Caco-2 cell monolayer [3]): reduction in the DON-affected LY flux
concentration of beta3′-GL in TOS at which the barrier effect is observed (Caco-2 cell monolayer [2]; Caco-2, DON challenge, beta3′-GL as part of TOS): lower than 0.17 wt %
effect on DON-induced loss of epithelial barrier integrity (TEER and LY flux) (Caco-2 cell monolayer [2]; [4]): prevented the DON-induced loss of epithelial barrier integrity
TEER after DON challenge (Caco-2 cell monolayer [2]; GL 0.75 wt %, 24 h pretreatment, then DON 4.2 M 24 h, FIGS. 1A, 1B): increased TEER values
effect on DON-induced loss of epithelial barrier integrity (TEER and LY flux) (Caco-2 cell monolayer [2]; GL 0.75 wt %, 24 h pretreatment, then DON 4.2 M 24 h, listed as beta1,3′-galactosyllactose): prevented loss of epithelial barrier integrity to a much higher extent than other galactosyl-lactoses
